Source: patent US9353090B2, “Heterocyclic carboxylic acids as activators of soluble guanylate cyclase” (Boehringer Ingelheim International GmbH, priority 2014, dated 2016)
In brackets after ≈: the same amount, converted by molar mass.

Key:
[1] = biological target: human soluble guanylate cyclase alpha 1 and beta 1 subunits (sGC) (Homo sapiens (Human), UniProt Q02108+Q02153); assay: sGC cellular activator assay (cGMP, HTRF), in the presence and absence of 50% human serum; format: cell-based; details: CHO cells stably expressing human sGC alpha 1/beta 1, preincubated with 40 microM ODQ; cGMP by HTRF; Table 2 does not state whether with or without 50% human serum
In short: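 Heme-oxidized conditions: ODQ (40 microM, 1 h) pretreatment of CHO cells stably expressing human α1/β1 sGC, in buffer containing 0.1% BSA and IBMX.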

[2] = Human liver microsome (HLM) metabolic stability assay; format: in vitro ADME; details: human liver microsomes
In short: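 Compound at 1 uM incubated with human liver microsomes at 37° C. for 60 min after NADPH addition. Aliquots quenched in cold acetonitrile at 0, 5, 15, 30 and 60 min and analysed by LC/MS/MS. t1/2 from ln(% remaining) vs time slope; CLint, CLh and % Qh derived from it (n=1).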

physchem = details: kinetic from dmso stock
Procedure: Solubility is measured by the following method.
100 uL, 10 mM DMSO stock solution of each compound is prepared in a 96 well plate format. The experiment is done in single determination at 3 pH values (2.2, 4.5 and 6.8). For each pH and one reference, 40 uL of each compound is needed.
McIlvaine pH 2.2: To 2.076 g citric acid monohydrate and 0.043 g Na2HPO4×2H2O add 100 ml deionized water
McIlvaine pH 4.5: To 1.166 g citric acid monohydrate and 1.585 g Na2HPO4×2H2O add 100 ml deionized water
McIlvaine pH 6.8: To 0.476 g citric acid monohydrate and 2.753 g Na2HPO4×2H2O add 100 ml deionized water
With a suitable liquid handling device (Multipette® or a liquid handler) 390 uL of each buffer solution and 10 uL of compound is added to each well of a 96 deep well plate. The plates are covered firmly and shaken for 24 h on an over head shaker (at 54 RPM) at room temperature. The DMSO content in the final buffer is 2.5% v/v.
After 24 h the plates are centrifuged to remove droplets on the lid before opening (for ˜5 min at 2500 RPM).
The filtration is done under vacuum with Millipore 96 well filter plate. Filtrate is collected in a deep well plate and transferred to a suitable plate for UPLC analysis.
The reference plate is prepared by adding 10 uL of compound to 390 uL of 50:50 acetonitrile/water in a 96 deep well plate and transferred to a suitable plate for UPLC analysis. Wells are checked visually for precipitation, any presence noted under comments in reported results.
The samples are measured with UPLC-UV using the chromatographic method described below.
Waters Empower®2 software is used for generating Sample Sets (according to the plate layout), Sample Set Methods and Instrument Methods.
One Sample Set comprises the methods for three 96 well plates (one reference plate and two sample plates, and includes one Sample Set Method and one Instrument Method).
Data Processing and Analysis
The UV chromatograms collected at 254 nm are integrated and processed.
It is assumed that the compound is completely dissolved in the reference solution (50:50 acetonitrile/water)

[3] = pH 2.2, aqueous buffer, Solubility (pH 2.2)
[4] = pH 4.5, aqueous buffer, Solubility (pH 4.5)
[5] = pH 6.8, aqueous buffer, Solubility (pH 6.8)

Chain of human soluble guanylate cyclase alpha 1 and beta 1 subunits (sGC) (Q02108 whole entry partner): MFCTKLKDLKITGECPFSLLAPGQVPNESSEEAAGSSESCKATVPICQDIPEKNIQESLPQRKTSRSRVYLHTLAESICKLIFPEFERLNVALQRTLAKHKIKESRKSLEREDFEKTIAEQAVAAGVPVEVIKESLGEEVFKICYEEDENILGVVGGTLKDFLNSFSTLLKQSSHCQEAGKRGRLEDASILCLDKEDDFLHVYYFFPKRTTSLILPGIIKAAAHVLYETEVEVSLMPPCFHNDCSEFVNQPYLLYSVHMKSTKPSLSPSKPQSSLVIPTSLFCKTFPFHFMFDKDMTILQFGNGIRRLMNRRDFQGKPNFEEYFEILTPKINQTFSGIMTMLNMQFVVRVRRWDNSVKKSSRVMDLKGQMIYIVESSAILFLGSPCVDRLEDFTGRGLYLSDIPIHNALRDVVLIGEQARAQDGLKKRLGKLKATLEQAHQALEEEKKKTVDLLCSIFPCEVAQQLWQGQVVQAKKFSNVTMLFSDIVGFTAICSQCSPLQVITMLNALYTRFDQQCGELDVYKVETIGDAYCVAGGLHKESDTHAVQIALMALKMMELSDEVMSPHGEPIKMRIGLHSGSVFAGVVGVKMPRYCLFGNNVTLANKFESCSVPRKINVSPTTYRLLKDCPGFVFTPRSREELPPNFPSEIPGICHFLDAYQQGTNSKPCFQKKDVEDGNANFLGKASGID
Chain of human soluble guanylate cyclase alpha 1 and beta 1 subunits (sGC) (Q02153 whole entry): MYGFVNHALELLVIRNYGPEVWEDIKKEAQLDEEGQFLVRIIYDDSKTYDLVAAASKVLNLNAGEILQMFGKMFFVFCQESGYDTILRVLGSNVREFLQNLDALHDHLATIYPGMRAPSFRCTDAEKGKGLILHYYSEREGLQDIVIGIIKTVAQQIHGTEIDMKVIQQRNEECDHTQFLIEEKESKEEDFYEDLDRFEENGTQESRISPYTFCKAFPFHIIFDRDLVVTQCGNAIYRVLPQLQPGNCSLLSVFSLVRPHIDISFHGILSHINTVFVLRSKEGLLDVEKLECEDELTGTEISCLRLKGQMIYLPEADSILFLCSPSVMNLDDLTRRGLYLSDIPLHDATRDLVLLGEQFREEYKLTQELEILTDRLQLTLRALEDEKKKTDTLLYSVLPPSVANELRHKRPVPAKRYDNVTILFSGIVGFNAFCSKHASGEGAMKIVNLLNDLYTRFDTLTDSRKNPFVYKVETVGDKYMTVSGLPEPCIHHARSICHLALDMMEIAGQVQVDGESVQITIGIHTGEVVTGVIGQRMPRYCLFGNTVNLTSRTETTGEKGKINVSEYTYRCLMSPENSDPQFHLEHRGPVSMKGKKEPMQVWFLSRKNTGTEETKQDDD

Structure (SMILES)	EC50 [1]	Metabolic stability (Qh %), % hepatic blood flow [2]	solubility at 24 h (physchem; [3])	solubility at 24 h (physchem; [4])	solubility at 24 h (physchem; [5])
Cc1ccc(OCc2ccc3c(c2C)CCN(C2COC2)CC3)c(-c2cccc(N3C[C@@H]4C[C@]4(C(=O)O)C3)n2)c1 [Compound 42]	50 nM	76%	96 µg/mL (≈ 178 µM)	87 µg/mL (≈ 161 µM)	58 µg/mL (≈ 107 µM)
Cc1ccc(OCc2cc(C)c3c(c2)CCN(C2COC2)C3)c(-c2cccc(N3C[C@@H]4C[C@]4(C(=O)O)C3)n2)c1 [Compound 38]	354 nM	<24%	100 µg/mL (≈ 190 µM)	85 µg/mL (≈ 162 µM)	59 µg/mL (≈ 112 µM)
Cc1cccc(-c2cccc(N3CC[C@H](C(=O)O)[C@@H]4OCCC[C@H]43)n2)c1OCc1ccc2c(c1C)CCN(C1COC1)CC2 [Compound 336]	54 nM	32%	69.9 µg/mL (≈ 117 µM)	37.6 µg/mL (≈ 62.9 µM)	30 µg/mL (≈ 50.2 µM)
Cc1ccc(OCc2ccc3c(c2C)CCN(C2COC2)C3)c(-c2csc(N3CC[C@@]4(C(=O)O)C[C@H]4C3)n2)c1 [Compound 116]	35 nM	<24%	140 µg/mL (≈ 257 µM)	11 µg/mL (≈ 20.2 µM)	6 µg/mL (≈ 11 µM)
COC[C@H]1N(c2nc(-c3cccc(C)c3OCc3ccc4c(c3C)CCN(C3CCOCC3)C4)cs2)C[C@@H]2C[C@@]21C(=O)O [Compound 159]	44 nM	30%	120 µg/mL (≈ 199 µM)	95 µg/mL (≈ 157 µM)	89 µg/mL (≈ 147 µM)
CO[C@H]1CN(c2nc(-c3cc(C)ccc3OCc3ccc4c(c3C)CCN(C3CCOCC3)C4=O)cs2)CC[C@H]1C(=O)O [Compound 203]	33 nM	<24%	56.8 µg/mL (≈ 93.8 µM)	0.1 µg/mL (≈ 0.165 µM)	1.6 µg/mL (≈ 2.64 µM)
COc1cc(COc2c(C)cccc2-c2csc(N3CC[C@@H](C(=O)O)[C@@H](OC)C3)n2)cc2c1CN([C@H]1CCOC1)CC2 [Compound 211]	18 nM	<24%	133 µg/mL (≈ 224 µM)	83.4 µg/mL (≈ 140 µM)	76.5 µg/mL (≈ 129 µM)
CCO[C@H]1CN(c2nc(-c3cc(C)ccc3OCc3cc4c(c(OC)c3)CN(C3CCOCC3)CC4)cs2)CC[C@H]1C(=O)O [Compound 233]	190 nM	<24%	135 µg/mL (≈ 217 µM)	124 µg/mL (≈ 200 µM)	122 µg/mL (≈ 197 µM)
CCOC[C@@H]1N(c2cccc(-c3cccc(C)c3OCc3cc(C)c4c(c3)CCN(C3CCOCC3)C4)n2)C[C@@H]2C[C@@]21C(=O)O [Compound 316]	222 nM	39%	147 µg/mL (≈ 240 µM)	149 µg/mL (≈ 243 µM)	142 µg/mL (≈ 232 µM)
Cc1ccc(OCc2ccc3c(c2C)CCN(C2CCOCC2)CC3)c(-c2csc(N3C[C@@H]4C[C@]4(C(=O)O)C3)n2)c1 [Compound 150]	24 nM	<24%	100 µg/mL (≈ 174 µM)	44 µg/mL (≈ 76.7 µM)	9.7 µg/mL (≈ 16.9 µM)
COC[C@H]1N(c2cccc(-c3cccc(C)c3OCc3cc4c(c(OC)c3)CN(C3COC3)CC4)n2)C[C@@H]2C[C@@]21C(=O)O [Compound 58]	30 nM	<24%	110 µg/mL (≈ 188 µM)	90 µg/mL (≈ 154 µM)	80 µg/mL (≈ 137 µM)
CCO[C@@H]1CN(c2nccc(-c3cccc(C)c3OCc3ccc4c(c3C)CCN(C3CCOCC3)CC4)n2)CC[C@@H]1C(=O)O [Compound 276]	150 nM	<24%	126 µg/mL (≈ 206 µM)	84.8 µg/mL (≈ 138 µM)	90.6 µg/mL (≈ 147 µM)
CO[C@H]1CN(c2cccc(-c3cccc(C)c3OCc3ccc4c(c3C)CCN(C3CCOCC3)C4)n2)CC[C@H]1C(=O)O [Compound 65]	29 nM	31%	130 µg/mL (≈ 222 µM)	110 µg/mL (≈ 188 µM)	80 µg/mL (≈ 137 µM)
COC[C@H]1N(c2nc(-c3cc(C)ccc3OCc3ccc4c(c3C)CCN(C3CCOCC3)C4)cs2)C[C@@H]2C[C@@]21C(=O)O [Compound 164]	108 nM	<24%	120 µg/mL (≈ 199 µM)	75 µg/mL (≈ 124 µM)	59 µg/mL (≈ 97.7 µM)
Cc1cccc(-c2csc(N3C[C@@H]4C[C@]4(C(=O)O)C3)n2)c1OCc1ccc2c(c1)CCN(C1CCOCC1)C2 [Compound 135]	39 nM	<24%	100 µg/mL (≈ 183 µM)	70 µg/mL (≈ 128 µM)	56 µg/mL (≈ 103 µM)

Second part, the molecule after the results:

EC50 [1]	Metabolic stability (Qh %), % hepatic blood flow [2]	solubility at 24 h (physchem; [3])	solubility at 24 h (physchem; [4])	solubility at 24 h (physchem; [5])	Structure (SMILES)
4 nM	<24%	112 µg/mL (≈ 183 µM)	109 µg/mL (≈ 179 µM)	109 µg/mL (≈ 178 µM)	CCO[C@@H]1CN(c2nc(-c3cccc(C)c3OCc3cc(F)c4c(c3)CCN(C3CCOCC3)C4)cs2)CC[C@@H]1C(=O)O [Compound 238]
6 nM	<24%	120 µg/mL (≈ 204 µM)	20 µg/mL (≈ 34 µM)	2.9 µg/mL (≈ 4.93 µM)	Cc1ccc(OCc2ccc3c(c2C)CCN(C2CCOCC2)CC3)c(-c2csc(N3CC[C@@]4(C(=O)O)C[C@H]4C3)n2)c1 [Compound 130]
1 nM	25%	109 µg/mL (≈ 173 µM)	60.2 µg/mL (≈ 96.1 µM)	55.4 µg/mL (≈ 88.5 µM)	CO[C@H]1CN(c2nc(-c3cccc(Cl)c3OCc3ccc4c(c3)[C@@H](C)CN(C3CCOCC3)CC4)cs2)CC[C@H]1C(=O)O [Compound 319]
7 nM	33%	131 µg/mL (≈ 227 µM)	69.1 µg/mL (≈ 120 µM)	67.4 µg/mL (≈ 117 µM)	CO[C@H]1CN(c2nc(-c3cccc(C)c3OCc3ccc4c(c3)[C@@H](C)CN(C3COC3)CC4)cs2)CC[C@H]1C(=O)O [Compound 325]
10 nM	<24%	150 µg/mL (≈ 251 µM)	110 µg/mL (≈ 184 µM)	82 µg/mL (≈ 137 µM)	CCc1cc(COc2c(C)cccc2-c2cccc(N3C[C@@H]4C[C@]4(C(=O)O)[C@H]3COC)n2)cc2c1CN(C1CCOC1)CC2 (some centres unmarked) [Compound 55]
18 nM	<24%	110 µg/mL (≈ 197 µM)	76 µg/mL (≈ 136 µM)	62 µg/mL (≈ 111 µM)	Cc1cccc(-c2csc(N3C[C@@H]4C[C@]4(C(=O)O)C3)n2)c1OCc1ccc2c(c1C)CCN(C1CCOCC1)C2 [Compound 136]
1 nM	<24%	141 µg/mL (≈ 241 µM)	105 µg/mL (≈ 180 µM)	91.1 µg/mL (≈ 156 µM)	CO[C@@H]1CN(c2cccc(-c3cccc(C)c3OCc3ccc4c(c3C)CCN([C@H]3CCOC3)CC4)n2)CC[C@@H]1C(=O)O [Compound 301]
16 nM	<24%	130 µg/mL (≈ 233 µM)	110 µg/mL (≈ 197 µM)	89 µg/mL (≈ 160 µM)	CO[C@@H]1CN(c2cccc(-c3cccc(C)c3OCc3ccc4c(c3C)CCN(C3COC3)C4)n2)CC[C@@H]1C(=O)O [Compound 69]
3 nM	24%	117 µg/mL (≈ 205 µM)	114 µg/mL (≈ 199 µM)	107 µg/mL (≈ 187 µM)	CO[C@@H]1CN(c2cccc(-c3cccc(C)c3OCc3ccc4c(c3C)CCN(C3COC3)CC4)n2)CC[C@@H]1C(=O)O [Compound 196]
7 nM	<24%	96 µg/mL (≈ 181 µM)	58 µg/mL (≈ 109 µM)	59 µg/mL (≈ 111 µM)	Cc1cc(COc2c(C)cccc2-c2csc(N3C[C@@H]4C[C@]4(C(=O)O)C3)n2)cc2c1CN(C1COC1)CC2 [Compound 139]
12 nM	<24%	155 µg/mL (≈ 251 µM)	144 µg/mL (≈ 233 µM)	132 µg/mL (≈ 213 µM)	COC[C@H]1N(c2cccc(-c3cccc(Cl)c3OCc3cc(C)c4c(c3)CCN(C3CCOCC3)C4)n2)C[C@@H]2C[C@@]21C(=O)O [Compound 221]
3 nM	54%	160 µg/mL (≈ 289 µM)	130 µg/mL (≈ 235 µM)	60 µg/mL (≈ 108 µM)	Cc1c(COc2ccccc2-c2cccc(N3CC[C@@]4(C(=O)O)C[C@H]4C3)n2)ccc2c1CCN(C1CCOCC1)C2 [Compound 6]
4 nM	39%	120 µg/mL (≈ 199 µM)	82 µg/mL (≈ 136 µM)	75 µg/mL (≈ 124 µM)	COC[C@H]1N(c2nc(-c3cccc(C)c3OCc3cc(C)c4c(c3)CCN(C3CCOCC3)C4)cs2)C[C@@H]2C[C@@]21C(=O)O [Compound 162]
14 nM	31%	120 µg/mL (≈ 220 µM)	3.7 µg/mL (≈ 6.78 µM)	4.9 µg/mL (≈ 8.98 µM)	Cc1ccc(OCc2cc(C)c3c(c2)CCN(C2COC2)C3)c(-c2csc(N3CC[C@@]4(C(=O)O)C[C@H]4C3)n2)c1 [Compound 124]
7 nM	47%	110 µg/mL (≈ 184 µM)	36.4 µg/mL (≈ 60.9 µM)	60.2 µg/mL (≈ 101 µM)	CO[C@H]1CN(c2nc(-c3cccc(Cl)c3OCc3ccc4c(c3)[C@H](C)CN(C3COC3)CC4)cs2)CC[C@H]1C(=O)O [Compound 322]
6 nM	42%	140 µg/mL (≈ 253 µM)	120 µg/mL (≈ 217 µM)	71 µg/mL (≈ 128 µM)	Cc1cccc(-c2cccc(N3CC[C@@]4(C(=O)O)C[C@H]4C3)n2)c1OCc1ccc2c(c1)CCN(C1CCOCC1)C2 [Compound 13]
